Test results published in patent publication US4150970A, “Growth regulator for plants” (Board of Trustees of Michigan State University, priority 1977, dated 1979).
Entries after “also recorded” stand apart in the source; their conditions may differ.

How the values were obtained:
[1] = system: IR-8 rice seedlings; assay: Total protein content of rice seedlings grown in the dark for six hours (Example VIII); assay type: in vivo
Experimental: (§1) Rice seed cv. IR-8, or Starbonnet was surface treated with 0.1 percent mercuric chloride and planted in 77 cc plastic cups containing vermiculite and watered with one-fourth Hoagland's nutrient solution containing 3 mM of nitrogen at pH 5.0. After 10 days, seedlings were transplanted to 220 cc specimen cups wrapped in aluminum foil and containing 180 cc of the same Hoagland's nutrient solution. Four seedlings were suspended in the solution with a sponge rubber disc. The plants were grown under a 8 h night at 25° C. and a 16 h day at 30° C. with 21 and 8 μwatts per cm^2 in the blue and red spectra respectively. In the test with varying light intensity the high light intensity was 30 13 and the low intensity was 15 and 8 μwatts per cm^2 for the blue and red spectra respectively. The nutrient solution was renewed every 2 or 3 days. After one week the plants were sorted for size and similar sized plants assigned to the same block for the experiment. Prior to the initiation of a test the plants in each cup were assigned treatment numbers by use of a random number table. […] Sixteen hours prior to a test the foil wrapped cups were tared, and filled with one-half Hoaglands solution containing 6 mM nitrogen. Eighteen μl of chloroform or chloroform containing 1.8 μg triacontanol were placed on 2 cm^2 of Whatman No. 1 filter papers, air dried and placed in the specimen cups. This concentration of 10 μg triacontanol/liter was used for all tests described in the following Examples except where specifically indicated to the contrary. Immediately prior to the test the cups were all brought up to 180 ml. including a set of cups without plants to measure evaporation.
Plants were placed in 20×32 cm glass jars fitted with gas inlet and outlet ports. Three jars containing 2 cups each were used for a total of 24 plants for each treatment. The plants were ventilated with air or freed of CO2 by passing it through ascarite and then humidified. The flow rate was approximately 300 ml/minute. […]
The total protein (nitrogen) content of 17 day old "IR-8" rice seedlings was determined, where […]

[2] = system: IR-8 rice seedlings; assay: Dry weight of rice seedlings in the dark with and without carbon dioxide (Example VII); assay type: in vivo
Experimental: as §1
In the tests comparing dry weight accumulation in plants grown either in the absence of CO2 or in normal air were grown as previously described except the test was initiated at the end of the 16 hour light period.
(§2) Plants were placed in 20×32 cm glass jars fitted with gas inlet and outlet ports. Three jars containing 2 cups each were used for a total of 24 plants for each treatment. The plants were ventilated with air or freed of CO2 by passing it through ascarite and then humidified. The flow rate was approximately 300 ml/minute. Carbon dioxide-free air was also used to purge the appropriate jars during a two minute period required to place the plants in the jars. The N analyses were done by the automated micro-Kjelldahl procedure of Ferrari (1960).
To determine the response of rice seedlings grown in the dark with and without carbon dioxide, 17 day old "IR-8" rice seedlings were grown in the dark for 6 hours. All the parameters of CO2 vs no CO2 and of triacontanol vs no triacontanol were run. The testing procedures were described above.

[3] = system: IR-8 rice seedlings; assay: Dry weight and total protein of 18-day-old rice seedlings in light and dark for 24 hours (Examples X and XVII); assay type: in vivo; settings: for Dry Wt, Entire Plant / Dry Wt, Expanded leaves / Dry Wt, Roots / Dry Wt, Sheaths: 24 hours
Experimental: as §1, §2
Using the materials and procedures set forth above, dry weight and total protein (nitrogen) content of 18-day-old "IR-8" rice seedlings grown in light and dark for 24 hours with or without triacontanol was determined. Table X sets forth the results:
This example was run to determine the percent change in dry weight of whole 18-day-old "IR-8" rice seedlings treated with triacontanol in the light and dark over a 24 hour period expressed as percent change from zero time. The dry weight at zero time was 50.8 mg per seedling.

[4] = system: Larker barley; assay: Single and multiple foliar applications on barley (Example XII); assay type: in vivo
Text: Tests were run, under the conditions above described, to determine the response of "Michigan 396" field corn and "Larker" barley to single and multiple foliar applications of triacontanol at […]. Plants were one week old at time of first treatment and 25 days old at time or harvest. Table XII states the test results.

[5] = system: Bean callus cell culture; assay: Growth of bean callus cell culture (Example XIX); assay type: cell-based, Phaseolus vulgaris, var. seafarer
Experimental: Cell cultures were separately grown in disposable petri dishes.
4. Bean (Phaseolus vulgaris, var. seafarer)
The cultures were grown on the basic medium of mineral salts described by Linsmaier and Skoog (Physiol. Plant, […] (1965)). Vitamins and hormones varied for each tissue (Table X-1) to maintain the tissues in an undifferentiated state. For all of the tissues inositol was 100 mg/liter and agar 1%. Sucrose was 3% for all but the bean which was 2%.
Callus was produced from pith for tobacco, potato and tomato. Bean callus was produced from hypocotyl sections and barley callus from immature ovarian tissue. Subcultures were maintained on the appropriate media.
Stock solutions of triacontanol were prepared at a concentration of 100 μg/ml. The solvent used was glass distilled benzene. The lower concentrations were obtained by serial dilutions. Treatments were applied to 4.5 cm Whatman #1 filter paper disks in 100 μl aliquots. Controls received 100 μl of glass distilled benzene. The solvent was evaporated for approximately 15 minutes and the filter papers were then placed on the agar medium.
Callus tissue was then broken into pieces of approximately the same size (10 mg) and placed in the petri dishes on the treated filter paper (one piece per dish). For experiments conducted in the light the intensity was approximately 2.0 microwatts/cm^2 -namometer. Fresh weight measurements were made after 12 days of growth.

[6] = printed 10.0 g triacontanol, 12 days

With `CCCCCCCCCCCCCCCCCCCCCCCCCCCCCCO` [Triacontanol, 1-triacontanol] the “higher concentration of total protein in 4th leaf than the control” value [1] was 11%, the “total increase in protein per plant versus zero time” value [1] was 18% and the “total protein per (4th) leaf” value [1] was “doubling”. For the same molecule, the “CO2 fixation in the dark” value ([2]; dark 6 hours) was “stimulated rice seedlings to fix CO2 in the dark; also recorded: stimulates plants, such as rice seedlings, to fix CO2 in the dark”, the “Dry Wt, Expanded leaves” value ([2]; with CO2, dark 6 hours) was 26.7 mg/plant and the “Dry Wt, Roots” value ([2]; with CO2, dark 6 hours) was 25.6 mg/plant. For the same molecule, the “Dry Wt, Whole Plant” value ([2]; with CO2, dark 6 hours) was 71.9 mg/plant, the “Dry Wt, Expanded leaves” value ([2]; without CO2, dark 6 hours) was 22.4 mg/plant and the “Dry Wt, Roots” value ([2]; without CO2, dark 6 hours) was 23.2 mg/plant. For the same molecule, the “Dry Wt, Whole Plant” value ([2]; without CO2, dark 6 hours) was 62.0 mg/plant, the “dry weight in the dark versus dark controls” value ([3]; dark, 6- and 24-hour harvests) was “gained significantly more weight than the dark controls” and the “Dry Wt, Entire Plant” value ([3]; dark) was 55.0 mg/plant. The “Dry Wt, Expanded leaves” value ([3]; dark) was 22.0 mg/plant, the “Dry Wt, Roots” value ([3]; dark) was 20.3 mg/plant and the “Dry Wt, Sheaths” value ([3]; dark) was 12.8 mg/plant. For the same molecule, the “Dry Wt, Entire Plant” value ([3]; light) was 72.9 mg/plant, the “Dry Wt, Expanded leaves” value ([3]; light) was 30.3 mg/plant and the “Dry Wt, Roots” value ([3]; light) was 24.6 mg/plant. The “Dry Wt, Sheaths” value ([3]; light) was 18.0 mg/plant, the “Dry wt, Barley” value ([4]; treated at 7, 12 and 18 days) was 210 mg/shoot and the “Dry wt, Barley” value ([4]; treated at 7 and 12 days) was 206 mg/shoot. The “Dry wt, Barley” value ([4]; treated at 12 and 18 days) was 214 mg/shoot, the “Dry wt, Barley” value ([4]; treated at 7 days) was 205 mg/shoot and the “Dry wt, Barley” value ([4]; treated at 12 days) was 197 mg/shoot. For the same molecule, the “Dry wt, Barley” value ([4]; treated at 18 days) was 193 mg/shoot, the “growth of in vitro cell cultures” value ([5]; bean) was “significant increases in growth” and the “% of control” value [5, 6] was 149 % of control. It also gave a Fresh weight [5, 6] of 19.8.
